Test results taken from patent publication US20230071222A1, “METHOD FOR PREPARING FIBROSIS-ENCAPSULATED TUMOROID, AND USE THEREOF” (INDUSTRY-ACADEMIC COOPERATION FOUNDATION, YONSEI UNIVERSITY, priority 2020, published 2023).

System: fibrosis-encapsulated tumoroid (FET)
Test: Anticancer drug resistance test of fibrosis-encapsulated tumoroid (cell viability measurement)
Assay type: cell-based, human
Conditions: cisplatin, 100 µM; fibrosis-encapsulated tumoroid (FET) compared to the simple tumoroid (tumor only); FIG. 10B
Procedure: The present inventors performed a drug resistance test in order to evaluate whether it was possible to select drugs, which can be effective in the clinical stage, using the fibrosis-encapsulated tumoroid which is a solid cancer tissue analogue produced by the methods of Examples 1 to 4 (see FIGS. 10A and 10B). […] The drug test was conducted through cell viability measurement. The cell viability of each of the group containing the anticancer drug and the control group not containing the anticancer drug was measured after replacing the medium with maintenance medium. […] The cell viability of the solid cancer tissue analogue was measured using Promega’s CellTiter-Glo luminescent cell viability assay as another measurement method, and the death of cancer cells by the anticancer drug could be indirectly confirmed by comparison with the control group. […] The fibrosis-encapsulated tumoroid produced as described above mimicked a series of processes in which the anticancer agent passes sequentially through the blood vessel wall and fibrotic tissue and reaches cancer tissue, in the same way as in the human body. Thus, it is preferable to finally produce the eFET and conduct an anticancer drug test using the eFET, but only the FET may be selectively used in order to reduce cost or time. […]

N.N.[Cl][Pt][Cl] [cisplatin]
resistance to the anticancer drug (cell viability): statistically significant resistance
